Data as given in patent publication US12268674B2, “Mi-2β inhibitor as an immunotherapy agent” (BioVentures, LLC, priority 2021, dated 2025).

Tests used:
Assay in all cases: ATPase profile (ATP acyl phosphate probe)
Type in all cases: binding
ABCB10 = target: T1, ABCB10 (Homo sapiens, UniProt Q9NRK6); details: ABCB10, SEQ ID NO: 2, ATP BS
T1 construct: to get the native cell lysate; host or cells: A375 cell lysate

ABCF2 = target: T2, ABCF2 (Homo sapiens, UniProt Q9UG63)
T2 construct: to get the native cell lysate; host or cells: A375 cell lysate

ACLY = target: T3, ACLY (Homo sapiens, UniProt P53396)
T3 construct: to get the native cell lysate; host or cells: A375 cell lysate

AFG3L2 = target: T4, AFG3L2 (Homo sapiens, UniProt Q9Y4W6); details: AFG3L2, SEQ ID NO: 29, ATP BS
T4 construct: to get the native cell lysate; host or cells: A375 cell lysate

AK1 = target: T5, AK1 (Homo sapiens, UniProt P00568)
T5 construct: to get the native cell lysate; host or cells: A375 cell lysate

AK4 = target: T6, AK4 (Homo sapiens, UniProt P27144); details: AK4, SEQ ID NO: 35, ATP BS
T6 construct: to get the native cell lysate; host or cells: A375 cell lysate

ASS1 = target: T7, ASS1 (Homo sapiens, UniProt P00966); details: ASS1, SEQ ID NO: 43, ATP BS
T7 construct: to get the native cell lysate; host or cells: A375 cell lysate

ATP5B = target: T8, ATP5B (Homo sapiens, UniProt P06576); details: SEQ ID NO: 48, ATP BS
T8 construct: to get the native cell lysate; host or cells: A375 cell lysate

HSP90AA = target: T9, HSP90AA (Homo sapiens, UniProt P07900); details: SEQ ID NO: 95, ATP BS
T9 construct: to get the native cell lysate; endogenous in cells; host or cells: A375

IDI1 = target: T10, IDI1 (Homo sapiens, UniProt Q13907); details: IDI1, SEQ ID NO: 111, ATP BS
T10 construct: endogenous in cells; host or cells: A375

PKM, PKM2 = target: T11, PKM, PKM2 (Homo sapiens, UniProt P14618); details: PKM2, SEQ ID NO: 161, ATP BS
T11 construct: to get the native cell lysate; endogenous in cells; host or cells: A375 cell lysate

POLR3A = POLR3A (Homo sapiens, UniProt O14802); details: SEQ ID NO: 164, ATP BS
RFC2 = target: T12, RFC2 (Homo sapiens, UniProt P35250); details: RFC2, SEQ ID NO: 184, ATP BS
T12 construct: to get the native cell lysate; endogenous in cells; host or cells: A375 cell lysate

TOR2A, TOR2X = details: SEQ ID NO: 205, ATP BS
TTL = target: T13, TTL (Homo sapiens, UniProt Q8NG68)
T13 construct: to get the native cell lysate; endogenous in cells; host or cells: A375 cell lysate

UBA5 = target: T14, UBA5 (Homo sapiens, UniProt Q9GZZ9); details: UBA5, SEQ ID NO: 221, ATP BS
T14 construct: to get the native cell lysate; endogenous in cells; host or cells: A375 cell lysate

T2 sequence (Q9UG63 whole entry): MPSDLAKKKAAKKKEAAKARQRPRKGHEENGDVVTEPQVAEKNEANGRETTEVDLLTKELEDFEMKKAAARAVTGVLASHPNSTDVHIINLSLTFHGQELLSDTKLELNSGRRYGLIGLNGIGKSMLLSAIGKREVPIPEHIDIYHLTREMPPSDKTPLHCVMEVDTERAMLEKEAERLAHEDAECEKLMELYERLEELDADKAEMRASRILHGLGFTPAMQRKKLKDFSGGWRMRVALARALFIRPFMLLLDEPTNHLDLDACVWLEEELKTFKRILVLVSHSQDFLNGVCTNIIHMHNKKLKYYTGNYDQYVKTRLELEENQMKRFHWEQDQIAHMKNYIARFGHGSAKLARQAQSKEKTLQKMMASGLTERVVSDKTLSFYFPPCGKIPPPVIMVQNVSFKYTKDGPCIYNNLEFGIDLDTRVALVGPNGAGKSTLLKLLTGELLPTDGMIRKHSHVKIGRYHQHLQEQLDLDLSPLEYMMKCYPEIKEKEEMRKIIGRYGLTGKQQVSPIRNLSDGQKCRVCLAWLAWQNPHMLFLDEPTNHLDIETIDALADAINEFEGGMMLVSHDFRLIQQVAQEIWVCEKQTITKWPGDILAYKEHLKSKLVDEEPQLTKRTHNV
T13 sequence (Q8NG68 whole entry): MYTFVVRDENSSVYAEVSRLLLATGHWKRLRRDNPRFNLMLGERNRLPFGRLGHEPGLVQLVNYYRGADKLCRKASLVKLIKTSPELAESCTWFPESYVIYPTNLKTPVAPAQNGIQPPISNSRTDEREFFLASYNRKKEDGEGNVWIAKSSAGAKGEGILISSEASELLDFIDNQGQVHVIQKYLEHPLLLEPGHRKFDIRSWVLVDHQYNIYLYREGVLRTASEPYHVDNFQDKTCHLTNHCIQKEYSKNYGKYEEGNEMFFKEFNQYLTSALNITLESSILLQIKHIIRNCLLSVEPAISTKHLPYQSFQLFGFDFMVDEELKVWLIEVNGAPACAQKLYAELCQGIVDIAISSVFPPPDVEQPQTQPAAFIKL
T3 sequence (P53396 whole entry): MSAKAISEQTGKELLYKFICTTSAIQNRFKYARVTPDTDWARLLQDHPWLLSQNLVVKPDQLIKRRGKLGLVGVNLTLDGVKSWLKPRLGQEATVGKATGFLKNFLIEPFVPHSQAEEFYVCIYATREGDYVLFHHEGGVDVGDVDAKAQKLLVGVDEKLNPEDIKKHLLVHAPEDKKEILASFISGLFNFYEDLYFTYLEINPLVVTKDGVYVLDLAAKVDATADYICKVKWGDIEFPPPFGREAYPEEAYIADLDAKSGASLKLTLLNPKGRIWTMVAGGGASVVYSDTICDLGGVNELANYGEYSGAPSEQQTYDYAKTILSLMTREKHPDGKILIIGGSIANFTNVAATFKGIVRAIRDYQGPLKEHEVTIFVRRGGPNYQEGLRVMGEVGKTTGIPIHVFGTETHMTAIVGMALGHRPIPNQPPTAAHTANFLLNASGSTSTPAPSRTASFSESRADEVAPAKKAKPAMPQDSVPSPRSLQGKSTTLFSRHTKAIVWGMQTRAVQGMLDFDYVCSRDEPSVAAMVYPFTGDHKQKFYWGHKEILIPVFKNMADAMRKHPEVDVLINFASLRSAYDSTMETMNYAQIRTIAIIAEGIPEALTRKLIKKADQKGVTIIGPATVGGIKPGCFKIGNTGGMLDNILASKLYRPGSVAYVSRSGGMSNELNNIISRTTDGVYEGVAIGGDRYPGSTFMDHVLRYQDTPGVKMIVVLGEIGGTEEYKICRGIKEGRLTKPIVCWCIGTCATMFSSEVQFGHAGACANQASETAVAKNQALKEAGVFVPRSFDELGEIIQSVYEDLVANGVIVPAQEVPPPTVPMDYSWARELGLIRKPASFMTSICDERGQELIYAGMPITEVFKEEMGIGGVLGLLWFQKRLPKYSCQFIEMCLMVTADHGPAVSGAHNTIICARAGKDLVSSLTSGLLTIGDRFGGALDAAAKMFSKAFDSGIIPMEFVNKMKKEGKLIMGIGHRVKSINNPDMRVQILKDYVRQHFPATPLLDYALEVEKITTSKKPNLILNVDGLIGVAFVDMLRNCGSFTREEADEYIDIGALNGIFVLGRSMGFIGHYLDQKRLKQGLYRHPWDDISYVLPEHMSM
T5 sequence (P00568 whole entry): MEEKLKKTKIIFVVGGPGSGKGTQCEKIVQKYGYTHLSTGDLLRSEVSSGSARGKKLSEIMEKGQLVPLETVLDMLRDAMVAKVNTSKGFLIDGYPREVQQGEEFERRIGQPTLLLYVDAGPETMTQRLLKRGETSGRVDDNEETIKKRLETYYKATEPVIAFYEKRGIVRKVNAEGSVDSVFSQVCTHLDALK
T10 sequence (Q13907 whole entry): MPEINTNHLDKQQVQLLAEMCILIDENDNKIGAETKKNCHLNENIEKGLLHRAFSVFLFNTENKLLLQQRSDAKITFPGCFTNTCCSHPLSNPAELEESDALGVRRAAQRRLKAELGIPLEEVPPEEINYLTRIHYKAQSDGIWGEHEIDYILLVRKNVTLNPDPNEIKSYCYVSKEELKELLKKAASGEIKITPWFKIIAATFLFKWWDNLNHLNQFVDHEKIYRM
T1 sequence (Q9NRK6 106-738): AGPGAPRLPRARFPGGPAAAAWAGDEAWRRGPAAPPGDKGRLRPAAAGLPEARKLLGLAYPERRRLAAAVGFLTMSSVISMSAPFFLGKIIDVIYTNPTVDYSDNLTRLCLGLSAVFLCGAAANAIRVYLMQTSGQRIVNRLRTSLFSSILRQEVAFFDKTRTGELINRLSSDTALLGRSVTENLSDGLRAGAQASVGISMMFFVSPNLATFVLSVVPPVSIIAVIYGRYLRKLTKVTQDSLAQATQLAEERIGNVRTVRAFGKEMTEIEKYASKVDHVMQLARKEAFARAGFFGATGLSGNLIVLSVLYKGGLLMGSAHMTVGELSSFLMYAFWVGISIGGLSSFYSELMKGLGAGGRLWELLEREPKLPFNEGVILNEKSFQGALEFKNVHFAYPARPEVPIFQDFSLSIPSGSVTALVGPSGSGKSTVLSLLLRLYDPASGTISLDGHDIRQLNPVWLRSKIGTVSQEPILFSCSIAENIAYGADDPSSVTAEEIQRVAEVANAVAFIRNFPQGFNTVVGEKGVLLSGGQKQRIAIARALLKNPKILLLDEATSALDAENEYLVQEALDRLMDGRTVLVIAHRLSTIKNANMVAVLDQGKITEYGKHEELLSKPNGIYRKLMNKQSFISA
T8 sequence (P06576 48-529): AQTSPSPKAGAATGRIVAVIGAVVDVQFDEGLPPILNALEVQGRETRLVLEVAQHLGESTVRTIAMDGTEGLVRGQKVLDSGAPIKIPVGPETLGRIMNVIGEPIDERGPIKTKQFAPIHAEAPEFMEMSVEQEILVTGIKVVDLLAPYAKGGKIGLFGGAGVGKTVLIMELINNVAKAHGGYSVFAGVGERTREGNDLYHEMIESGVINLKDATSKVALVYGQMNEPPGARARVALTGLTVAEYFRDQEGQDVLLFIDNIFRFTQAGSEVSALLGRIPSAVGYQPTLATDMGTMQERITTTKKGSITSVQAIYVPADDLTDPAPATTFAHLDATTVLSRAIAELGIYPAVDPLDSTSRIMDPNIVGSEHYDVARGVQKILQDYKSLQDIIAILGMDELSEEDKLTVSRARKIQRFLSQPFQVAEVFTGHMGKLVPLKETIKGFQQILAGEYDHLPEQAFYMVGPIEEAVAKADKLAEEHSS
T8 sequence (P25705 44-553 partner): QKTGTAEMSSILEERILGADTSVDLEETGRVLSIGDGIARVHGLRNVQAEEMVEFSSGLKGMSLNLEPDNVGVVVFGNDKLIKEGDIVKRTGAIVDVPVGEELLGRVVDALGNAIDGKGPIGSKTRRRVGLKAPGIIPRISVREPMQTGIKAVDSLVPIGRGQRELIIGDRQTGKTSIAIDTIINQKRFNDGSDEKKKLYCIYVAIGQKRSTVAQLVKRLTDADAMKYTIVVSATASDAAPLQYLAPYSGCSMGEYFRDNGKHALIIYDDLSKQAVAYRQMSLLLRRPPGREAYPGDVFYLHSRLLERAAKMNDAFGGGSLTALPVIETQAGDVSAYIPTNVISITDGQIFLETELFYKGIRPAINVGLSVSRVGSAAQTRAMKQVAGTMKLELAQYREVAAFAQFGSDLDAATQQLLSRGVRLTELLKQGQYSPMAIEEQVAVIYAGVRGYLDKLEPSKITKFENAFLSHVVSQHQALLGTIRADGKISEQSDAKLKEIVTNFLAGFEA
T8 sequence (P36542 26-298 partner): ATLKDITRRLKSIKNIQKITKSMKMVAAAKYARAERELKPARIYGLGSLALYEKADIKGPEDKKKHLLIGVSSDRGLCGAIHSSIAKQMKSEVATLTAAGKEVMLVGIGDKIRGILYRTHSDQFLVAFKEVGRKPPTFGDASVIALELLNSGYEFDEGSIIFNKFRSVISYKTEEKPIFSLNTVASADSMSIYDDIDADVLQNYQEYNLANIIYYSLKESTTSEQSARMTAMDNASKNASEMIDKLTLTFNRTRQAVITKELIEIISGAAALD
T8 sequence (P30049 23-168 partner): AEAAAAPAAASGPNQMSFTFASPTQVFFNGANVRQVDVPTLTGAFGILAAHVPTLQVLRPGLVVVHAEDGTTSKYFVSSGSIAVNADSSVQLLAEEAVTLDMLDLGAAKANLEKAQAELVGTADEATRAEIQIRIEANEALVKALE
T8 sequence (P56381 whole entry partner): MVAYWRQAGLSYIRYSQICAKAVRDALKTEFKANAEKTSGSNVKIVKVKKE
T6 sequence (P27144 whole entry): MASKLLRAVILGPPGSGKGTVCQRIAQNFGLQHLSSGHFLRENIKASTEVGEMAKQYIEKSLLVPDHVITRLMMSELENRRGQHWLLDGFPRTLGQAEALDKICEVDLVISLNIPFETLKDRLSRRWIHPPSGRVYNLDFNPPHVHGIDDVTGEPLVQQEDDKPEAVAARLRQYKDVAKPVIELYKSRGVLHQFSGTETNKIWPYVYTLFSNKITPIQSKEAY

## Cn1c(=O)[nH]c2ccc(-c3cccc(C(=O)NC4CCn5ccnc5C4)c3)cc21 (centres unmarked) [Z36-MP5, 3-(3-methyl-2-oxo-2,3-dihydro-1H-benzo[d]imidazol-5-yl)-N-(5,6,7,8-tetrahydroimidazo[1,2-a]pyridin-7-yl)benzamide]
ABCB10
  Inhibition (%) by 1 μM Z36-MP5: −6.14%
ABCF2; ABCF2, SEQ ID NO: 17, ATP BS
  Inhibition (%) by 1 μM Z36-MP5: −7.92%
ABCF2; ABCF2, SEQ ID NO: 18, ATP BS
  Inhibition (%) by 1 μM Z36-MP5: 26.88%
ACLY; SEQ ID NO: 22, ATP BS
  Inhibition (%) by 1 μM Z36-MP5: −6.87%
ACLY; SEQ ID NO: 23, ATP BS
  Inhibition (%) by 1 μM Z36-MP5: 2.00%
AFG3L2
  Inhibition (%) by 1 μM Z36-MP5: −4.85%
AK1; AK1, SEQ ID NO: 31, ATP BS
  Inhibition (%) by 1 μM Z36-MP5: −7.19%
AK1; AK1, SEQ ID NO: 32, ATP BS
  Inhibition (%) by 1 μM Z36-MP5: −9.87%
AK4
  Inhibition (%) by 1 μM Z36-MP5: −9.19%
ASS1
  Inhibition (%) by 1 μM Z36-MP5: 0.53%
ATP5B
  Inhibition (%) by 1 μM Z36-MP5: −14.96%
HSP90AA
  Inhibition (%) by 1 μM Z36-MP5: −1.29%
IDI1
  Inhibition (%) by 1 μM Z36-MP5: 5.48%
PKM, PKM2
  Inhibition (%) by 1 μM Z36-MP5: 28.24%
POLR3A
  Inhibition (%) by 1 μM Z36-MP5: 4.31%
RFC2
  Inhibition (%) by 1 μM Z36-MP5: 1.52%
TOR2A, TOR2X
  Inhibition (%) by 1 μM Z36-MP5: 0.38%
TTL; SEQ ID NO: 213, ATP BS
  Inhibition (%) by 1 μM Z36-MP5: 10.59%
TTL; SEQ ID NO: 214, ATP BS
  Inhibition (%) by 1 μM Z36-MP5: −14.46%
UBA5
  Inhibition (%) by 1 μM Z36-MP5: −12.85%
